Results from patent US20240132480A1, “INHIBITORS OF MYCOBACTERIUM TUBERCULOSIS LIPOAMIDE DEHYDROGENASE” (Cornell University, priority 2021, published 2024).

The molecules below were run against Mtb Lpd (Mycobacterium tuberculosis (strain ATCC 25618 / H37Rv), UniProt P9WHH9). Conditions: 30 min preincubation; read-out: LPD IC50 (μM) w/ 30 min preincubation.
Type: biochemical

Compound	IC50
CC#CCN(C)C(=O)CN(C)S(=O)(=O)c1cc(C)cc2cc(C#N)[nH]c12 [Example 226]	0.368 µM
Cc1cc(S(=O)(=O)N(C)CC(=O)Nc2ccc(N3CCOCC3)c(Cl)c2)c2[nH]ncc2c1 [Example 126]	0.015 µM
C/C=C/CNC(=O)CN(C)S(=O)(=O)c1cc(C)cc2cc(C#N)[nH]c12 [Example 227]	0.018 µM
Cc1cc(S(=O)(=O)N(C)CC(=O)Nc2ccc3c(c2)CCCO3)c2[nH]c(C#N)cc2c1 [Example 221]	0.015 µM
Cc1cc(S(=O)(=O)N(C)CC(=O)Nc2cc(=O)n(C)cn2)c2[nH]c(C#N)cc2c1 [Example 222]	0.027 µM
Cc1cc(S(=O)(=O)N(C)CC(=O)Nc2ccn3nccc3c2)c2[nH]c(C#N)cc2c1 [Example 220]	0.019 µM

Same assay, conditions: read-out: LPD IC50

Compound	IC50
Cc1cc(S(=O)(=O)N2CCC2C(=O)NCc2ccccc2)c2[nH]ncc2c1 (stereo not shown) [Example 81]	0.62 µM
Cc1cc(S(=O)(=O)N2CC[C@H]2C(=O)N[C@@H]2CCCOC2)c2[nH]ncc2c1 [Example 142, (2S)-1-[(5-methyl-1H-indazol-7-yl)sulfonyl]-N-[(3R)-tetrahydropyran-3-yl]azetidine-2-carboxamide]	0.47 µM
Cc1cc(S(=O)(=O)N(C)CC(=O)Nc2ccc3c(c2)OCCN3C2CCOCC2)c2[nH]ncc2c1 [Example 89]	0.0419 µM
Cc1cc(S(=O)(=O)N2CC[C@@H](C(=O)Nc3ccc(N4CCOCC4)c(Cl)c3)C2)c2n[nH]cc2c1 [Example 119]	0.0348 µM
CN(CC(=O)Nc1ccn(C)c(=O)c1)S(=O)(=O)c1cc(C2(O)CC2)cc2cn[nH]c12 [Example 172, 2-((5-(1-hydroxycyclopropyl)-N-methyl-1H-indazole)-7-sulfonamido)-N-(1-methyl-2-oxo-1,2-dihydropyridin-4-yl)acetamide]	0.654 µM
Cc1cc(S(=O)(=O)N(C)CC(=O)Nc2ccc3ccccc3n2)c2n[nH]cc2c1 [Example 64]	0.0335 µM
Cc1cc(S(=O)(=O)N2CC[C@H]2C(=O)N[C@H]2CCCOC2)c2[nH]ncc2c1 [Example 141, (2S)-1-[(5-methyl-1H-indazol-7-yl)sulfonyl]-N-[(3S)-tetrahydropyran-3-yl]azetidine-2-carboxamide]	0.811 µM
Cc1cc(S(=O)(=O)N2CC[C@H]2C(=O)NC2CCOCC2)c2[nH]ncc2c1 [Example 128]	1.07 µM
Cc1cc(S(=O)(=O)N2CC[C@H]2C(=O)NC2CCc3ccccc32)c2[nH]ncc2c1 (stereo partly shown) [Example 138]	> 10 µM
Cc1cc(S(=O)(=O)N(C)CC(=O)NC2CCN(C)CC2)c2n[nH]cc2c1 [Example 53]	0.963 µM
Cc1ccc(CNC(=O)CN(C)S(=O)(=O)c2cc(C)cc3cn[nH]c23)cc1 [Example 111]	0.0522 µM
Cc1cc(S(=O)(=O)N2CC[C@H]2C(=O)NC2CCc3ccccc32)c2[nH]ncc2c1 (stereo partly shown) [Example 131]	2.52 µM
Cc1cc(S(=O)(=O)N(CC(=O)Nc2ccn(C)c(=O)c2)C2COC2)c2[nH]ncc2c1 [Example 38, N-(1-methyl-2-oxo-1,2-dihydropyridin-4-yl)-2-((5-methyl-N-(oxetan-3-yl)-1H-indazole)-7-sulfonamido)acetamide]	0.42 µM
Cc1cc(S(=O)(=O)N(C)CC(=O)Nc2ccc(N3CCOCC3)c(Cl)c2)c2[nH]ncc2c1 [Example 126]	0.019 µM
Cc1cc(S(=O)(=O)N2CCC(C(=O)Nc3ccc4c(c3)OCCN4C)C2)c2[nH]ncc2c1 (stereo not shown) [Example 120]	0.0197 µM
Cc1cc(S(=O)(=O)N2CC[C@H]2C(=O)NC2CCCN(C)C2)c2[nH]ncc2c1 (stereo partly shown) [Example 135-S]	5.87 µM
Cc1cc(S(=O)(=O)N(C)CC(=O)NC2CCCOC2)c2n[nH]cc2c1 (stereo not shown) [Example 54]	0.0906 µM
Cc1cc(S(=O)(=O)N(C)CC(=O)Nc2ccn(C)c(=O)c2)c2[nH]c(C)cc2c1 [Example 134]	0.963 µM
Cc1cc(S(=O)(=O)N(C)CC(=O)NC2C(=O)Nc3ccccc32)c2n[nH]cc2c1 (stereo not shown) [Example 77]	0.803 µM
Cc1cc(S(=O)(=O)N(C)CC(=O)NCc2cn(C)nn2)c2[nH]ncc2c1 [Example 108]	0.111 µM

Compound	IC50
Cc1cc(S(=O)(=O)N2CC[C@H]2C(=O)NC2COC2)c2[nH]ncc2c1 [Example 80]	0.285 µM
Cc1cc(S(=O)(=O)N(C)CC(=O)N[C@H]2CCc3ccccc32)c2n[nH]cc2c1 [Example 55]	0.874 µM
CCN(CC(=O)Nc1ccc2c(c1)OCCN2C1COC1)S(=O)(=O)c1cc(C)cc2c[nH]nc12 [Example 155]	0.0246 µM
Cc1cc(S(=O)(=O)N(C)CC(=O)NC2CCc3cnccc32)c2n[nH]cc2c1 (stereo not shown) [Example 114]	0.0954 µM
Cc1cc(S(=O)(=O)N(C)CC(=O)NC2CCOCC2)c2n[nH]cc2c1 [Example 65]	0.118 µM
Cc1cc(S(=O)(=O)N(C)CC(=O)Nc2nc3ccccc3s2)c2n[nH]cc2c1 [Example 58]	0.0315 µM
Cc1cc(S(=O)(=O)N2CCC[C@@H](C(=O)Nc3ccn(C)c(=O)c3)C2)c2[nH]ncc2c1 [Example 96, (R)-1-((5-methyl-1H-indazol-7-yl)sulfonyl)-N-(1-methyl-2-oxo-1,2-dihydropyridin-4-yl)piperidine-3-carboxamide]	0.112 µM
Cc1cc(S(=O)(=O)N(C)CC(=O)Nc2ccn3c(C(F)(F)F)ncc3c2)c2n[nH]cc2c1 [Example 130]	0.0345 µM
Cc1cc(S(=O)(=O)N(C)CC(=O)N[C@H]2CCCOC2)c2[nH]ncc2c1 [Example 112]	0.109 µM
Cc1cc(S(=O)(=O)N2CC[C@H]2C(=O)Nc2cc3ccccc3cn2)c2[nH]ncc2c1 [Example 82]	0.0489 µM
C#CCNC(=O)CN(C)S(=O)(=O)c1cc(C)cc2cn[nH]c12 [Example 107]	0.047 µM
Cc1cc(S(=O)(=O)N(C)CC(=O)Nc2ccn(C)c(=O)c2)c2[nH]nc(C#N)c2c1 [Example 182, 2-((3-cyano-N,5-dimethyl-1H-indazole)-7-sulfonamido)-N-(1-methyl-2-oxo-1,2-dihydropyridin-4-yl)acetamide]	0.724 µM
Cc1cc(S(=O)(=O)N2CCC(C(=O)Nc3ccn(C)c(=O)c3)C2)c2[nH]ncc2c1 (stereo not shown) [Example 213]	1.92 µM
COc1ccc(NC(=O)CN(C)S(=O)(=O)c2cc(C)cc3c[nH]nc23)nc1 [Example 60]	0.0415 µM
Cc1cc(S(=O)(=O)N(C)CC(=O)Nc2nc3c(s2)NCCC3)c2n[nH]cc2c1 [Example 154, 2-((N,5-dimethyl-1H-indazole)-7-sulfonamido)-N-(4,5,6,7-tetrahydrothiazolo[5,4-b]250yclopro-2-yl)acetamide]	0.05 µM
Cc1cc(S(=O)(=O)N(C)CC(=O)NC2(C)CCCCC2)c2n[nH]cc2c1 [Example 127]	1.14 µM
Cc1cc(S(=O)(=O)N2CC[C@H]2C(=O)Nc2ccn3nccc3c2)c2[nH]ncc2c1 [Example 91]	0.041 µM
Cc1cc(S(=O)(=O)N(C)CC(=O)NC2CCCN(C)C2)c2n[nH]cc2c1 (stereo not shown) [Example 66]	0.593 µM
CCCc1cc(S(=O)(=O)N(C)CC(=O)Nc2ccn(C)c(=O)c2)c2[nH]ncc2c1 [Example 118]	0.0702 µM
Cc1cc(S(=O)(=O)N(C)CC(=O)N[C@@H]2CCc3ccccc32)c2n[nH]cc2c1 [Example 56]	0.0426 µM

Compound	IC50
Cc1cc(S(=O)(=O)N(C)CC(=O)NC2CCCCC2)c2n[nH]cc2c1 [Example 73]	0.0858 µM
Cc1cc(S(=O)(=O)N2CC[C@H]2C(=O)Nc2ccc(C#N)c(Cl)c2)c2[nH]ncc2c1 [Example 86]	0.0414 µM
Cc1cc(S(=O)(=O)N(C)CC(=O)Nc2ccc3c(c2)OCCN3C(C)C)c2n[nH]cc2c1 [Example 157]	0.014 µM
Cc1cccc(CNC(=O)CN(C)S(=O)(=O)c2cc(C)cc3c[nH]nc23)c1 [Example 110]	0.041 µM
Cc1cc(S(=O)(=O)N(C)CC(=O)Nc2nc3cnccc3s2)c2n[nH]cc2c1 [Example 115]	0.0276 µM
Cc1cc(S(=O)(=O)N(C)CC(=O)Nc2ccn3nc(C)cc3c2)c2[nH]ncc2c1 [Example 104]	0.157 µM
Cc1cc(S(=O)(=O)N2CC[C@H]2C(=O)Nc2ccc3ccccc3n2)c2[nH]ncc2c1 [Example 84]	0.027 µM
CCc1cc(S(=O)(=O)N(C)CC(=O)Nc2ccn(C)c(=O)c2)c2n[nH]cc2c1 [Example 117, 2-((5-ethyl-N-methyl-1H-indazole)-7-sulfonamido)-N-(1-methyl-2-oxo-1,2-dihydropyridin-4-yl)acetamide]	0.05 µM
Cc1cc(S(=O)(=O)N2CC[C@H]2C(=O)NC2CCCN(C)C2)c2[nH]ncc2c1 (stereo partly shown) [Example 135-R]	2.65 µM
Cc1cc(S(=O)(=O)N(C)CC(=O)Nc2nc3c(s2)CCN(C)C3)c2n[nH]cc2c1 [Example 137, 2-(N,5-dimethyl-1H-indazole-7-sulfonamido)-N-(5-methyl-4,5,6,7-tetrahydrothiazolo[4,5-c]pyridin-2-yl)acetamide]	0.025 µM
Cc1cc(S(=O)(=O)N(C)CC(=O)Nc2nc3c(s2)CCOC3)c2n[nH]cc2c1 [Example 116]	0.0771 µM
Cc1cc(S(=O)(=O)N(C)CC(=O)Nc2cc(C)n(C)c(=O)c2)c2[nH]ncc2c1 [Example 17, 2-((N,5-dimethyl-1H-indazole)-7-sulfonamido)-N-(1,6-dimethyl-2-oxo-1,2-dihydropyridin-4-yl)acetamide]	0.052 µM
Cc1cc(S(=O)(=O)N(C)CC(=O)N[C@@H]2CCCOC2)c2[nH]ncc2c1 [Example 113]	0.184 µM
Cc1cc(S(=O)(=O)N(C)CC(=O)NCc2ccccc2C)c2[nH]ncc2c1 [Example 109]	0.107 µM
Cc1cc(S(=O)(=O)N(C)CC(=O)Nc2ccn(C)c(=O)c2)c2nn[nH]c2c1 [Example 132, 2-((N,5-dimethyl-1H-benzo[d][1,2,3]triazole)-7-sulfonamido)-N-(1-methyl-2-oxo-1,2-dihydropyridin-4-yl)acetamide]	0.386 µM
Cc1cc(S(=O)(=O)N(C)CC(=O)Nc2cc3ccccc3cn2)c2n[nH]cc2c1 [Example 67]	0.0372 µM
Cc1cc(S(=O)(=O)N2CC[C@H]2C(=O)NC2CCCCC2)c2[nH]ncc2c1 [Example 70, (S)—N-cyclohexyl-1-((5-methyl-1H-indazol-7-yl)sulfonyl)azetidine-2-carboxamide]	0.279 µM
Cc1cc(S(=O)(=O)N(C)CC(=O)Nc2ccn(C)c(=O)c2)c2[nH][nH]c(=O)c2c1 [Example 133, 2-((N,5-dimethyl-3-oxo-2,3-dihydro-1H-indazole)-7-sulfonamido)-N-(1-methyl-2-oxo-1,2-dihydropyridin-4-yl)acetamide]	0.0706 µM
